Assay results published in patent US10654834B2 (Venenum Biodesign, LLC, priority 2016, dated 2020).

Assays:
mouse TGR5 receptor = biological target: T1, mouse TGR5 receptor (Mus musculus, UniProt Q80SS6); experiment: Mouse TGR5 HTRF cAMP production assay (HEK293-EBNA cells, Cisbio cAMP HiRange kit); type: cell-based; conditions: HEK293-EBNA cells overexpressing mouse TGR5, HTRF cAMP assay
T1 construct: host or cells: HEK293-EBNA (293 c18, ATCC CRL10852)
T1 sequence (Q80SS6 1-329): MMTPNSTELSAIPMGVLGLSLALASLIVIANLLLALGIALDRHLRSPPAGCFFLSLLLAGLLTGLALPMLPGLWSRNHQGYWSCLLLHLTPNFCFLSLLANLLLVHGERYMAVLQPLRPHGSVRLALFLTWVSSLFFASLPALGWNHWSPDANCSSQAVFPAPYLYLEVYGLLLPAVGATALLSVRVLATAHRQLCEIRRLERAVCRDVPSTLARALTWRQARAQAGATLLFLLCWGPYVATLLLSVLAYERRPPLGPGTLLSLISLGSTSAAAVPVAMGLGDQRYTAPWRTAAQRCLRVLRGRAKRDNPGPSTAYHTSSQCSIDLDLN
Procedure, shortened: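 cAMP accumulation was read by competitive HTRF after 1 h room-temperature compound treatment, with a further 1 h conjugate incubation. Cells were mouse TGR5-overexpressing HEK293-EBNA in serum-free DMEM plus 500 μM IBMX. Compounds ran as 12-point half-log series in duplicate, and EC50 values were reported.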

human TGR5 receptor = biological target: T2, human TGR5 receptor (Homo sapiens, UniProt Q8TDU6); experiment: Human TGR5 cAMP production assay (hTGR5-CHO cells, DiscoveRx cAMP XS+ kit); type: cell-based; conditions: luminescent cAMP assay, read-out: Human TGR5 Lum. cAMP Activity (EC50)
T2 construct: host or cells: CHO-K1 (hTGR5-CHO)
T2 sequence (Q8TDU6 1-330): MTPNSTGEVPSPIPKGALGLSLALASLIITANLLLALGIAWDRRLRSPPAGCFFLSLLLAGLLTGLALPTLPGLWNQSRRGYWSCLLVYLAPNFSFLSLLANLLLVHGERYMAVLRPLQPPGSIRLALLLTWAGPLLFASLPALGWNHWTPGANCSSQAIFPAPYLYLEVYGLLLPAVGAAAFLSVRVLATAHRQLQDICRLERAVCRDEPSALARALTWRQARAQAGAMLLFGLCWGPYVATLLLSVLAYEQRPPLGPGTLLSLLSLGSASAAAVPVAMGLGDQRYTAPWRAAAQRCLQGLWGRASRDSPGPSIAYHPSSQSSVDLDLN
Procedure, shortened: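 EC50 values come from luminescent enzyme-complementation cAMP detection, read after overnight incubation. Beforehand, hTGR5-expressing CHO-K1 cells with IBMX and anti-cAMP antibody were exposed 1 h at room temperature to serially diluted (half-log) compounds.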

| Compound | EC50 (mouse TGR5 receptor) [µM] | EC50 (human TGR5 receptor) [µM] |
| --- | --- | --- |
| N#Cc1ccc(CCNC(=O)[C@@H]2CCCN(c3cc(N4CCN(CCOCCO)CC4)nc(C(F)(F)F)n3)C2)cc1 [Compound 314, (R)-N-(4-cyanophenethyl)-1-(6-(4-(2-(2-hydroxyethoxy)ethyl)piperazin-1-yl)-2-(trifluoromethyl)pyrimidin-4-yl)piperidine-3-carboxamide] | < 0.1 | 0.1 to 0.999 |
| CC(=O)NCCOCCNC(=O)NCCC1CCN(c2cc(N3CC[C@H]3C(=O)NCCc3ccc(C#N)cc3)nc(C(F)(F)F)n2)CC1 [Compound 359, (S)-N-(4-cyanophenethyl)-1-(6-(4-(4,12-dioxo-8-oxa-3,5,11-triazatridecyl)piperidin-1-yl)-2-(trifluoromethyl)pyrimidin-4-yl)azetidine-2-carboxamide] | < 0.1 | < 0.1 |
| N#Cc1ccc(CCNC(=O)[C@@H]2CCCN2c2cc(N3CCC(CCCC(=O)NCCNc4ncnc5c4ncn5[C@@H]4O[C@H](CO)C(O)C4O)CC3)nc(C(F)(F)F)n2)cc1 (stereo partly drawn) [Compound 97, (2S)-N-(4-cyanophenethyl)-1-(6-(4-(4-((2-((9-((2R,5R)-3,4-dihydroxy-5-(hydroxymethyl)tetrahydrofuran-2-yl)-9H-purin-6-yl)amino)ethyl)amino)-4-oxobutyl)piperidin-1-yl)-2-(trifluoromethyl)-pyrimidin-4-yl)pyrrolidine-2-carboximide] | < 0.1 | < 0.1 |
| CCOC(=O)CCNC(=O)N1CCN(c2cc(N3CCC[C@@H](C(=O)NCCc4ccc(C(F)(F)F)cc4)C3)nc(C(F)(F)F)n2)CC1 [Compound 343, (R)-ethyl 3-(4-(2-(trifluoromethyl)-6-(3-((4-(trifluoromethyl)phenethyl)carbamoyl)-piperidin-1-yl)pyrimidin-4-yl)piperazine-1-carboxamido)propanoate] | < 0.1 | 0.1 to 0.999 |
| N#Cc1ccc(CCNC(=O)[C@@H]2CCN2c2cc(N3CCN(CCO)CC3)nc(C(F)(F)F)n2)cc1 [Compound 224, (S)-N-(4-cyanophenethyl)-1-(6-(4-(2-hydroxyethyl)piperazin-1-yl)-2-(trifluoromethyl)pyrimidin-4-yl)azetidine-2-carboxamide] | < 0.1 | 0.1 to 0.999 |
| CC1(CO)CCN(C(=O)NCCC2CCN(c3cc(N4CCC[C@H]4C(=O)NCCc4ccc(C#N)cc4)nc(C(F)(F)F)n3)CC2)CC1 [Compound 84, (S)-N-(2-(1-(6-(2-((4-cyanophenethyl)carbamoyl)pyrrolidin-1-yl)-2-(trifluoromethyl)pyrimidin-4-yl)piperidin-4-yl)ethyl)-4-(hydroxymethyl)-4-methylpiperidine-1-carboxamide] | < 0.1 | < 0.1 |
| O=C(O)CCNC(=O)NCCC1CCN(c2cc(N3C[C@@H](O)C[C@H]3C(=O)NCCc3ccc(C(F)(F)F)cc3)nc(C(F)(F)F)n2)CC1 [Compound 374, 3-(3-(2-(1-(6-((2S,4S)-4-hydroxy-2-((4-(trifluoromethyl)phenethyl)carbamoyl)pyrrolidin-1-yl)-2-(trifluoromethyl)pyrimidin-4-yl)piperidin-4-yl)ethyl)ureido)propanoic acid] | < 0.1 | < 0.1 |
| CN(C)CCN1CCN(c2cc(N3CCC[C@H]3C(=O)NCCc3ccc(C#N)cc3)nc(C(F)(F)F)n2)CC1 [Compound 30] | 0.1 to 0.999 | 0.1 to 0.999 |

More lines, now with the values ahead:

| EC50 (mouse TGR5 receptor) [µM] | EC50 (human TGR5 receptor) [µM] | Compound |
| --- | --- | --- |
| < 0.1 | 0.1 to 0.999 | N#Cc1ccc(CCNC(=O)[C@@H]2CCCN2c2cc(-c3ccc(CCNC(=O)NCCCS(=O)(=O)O)cc3)nc(C(F)(F)F)n2)cc1 [Compound 195, (S)-3-(3-(4-(6-(2-((4-cyanophenethyl)carbamoyl)pyrrolidin-1-yl)-2-(trifluoromethyl)pyrimidin-4-yl)phenethyl)ureido)propane-1-sulfonic acid] |
| 0.1 to 0.999 | 1 to 30 | CN(C(=O)NCCC(=O)O)c1ccc(-c2cc(N3CCC[C@H]3C(=O)NCCc3ccc(C#N)cc3)nc(C(F)(F)F)n2)cc1 [Compound 196, (S)-3-(3-(4-(6-(2-((4-cyanophenethyl)carbamoyl)pyrrolidin-1-yl)-2-(trifluoromethyl)pyrimidin-4-yl)phenyl)-3-methylureido)propanoic acid] |
| < 0.1 | < 0.1 | O=C(CCCC1CCN(c2cc(N3CCC[C@H]3C(=O)NCCc3ccc(-c4ccncc4)cc3)nc(C(F)(F)F)n2)CC1)NCS(=O)(=O)O [Compound 353, (S)-(4-(1-(6-(2-((4-(pyridin-4-yl)phenethyl)carbamoyl)pyrrolidin-1-yl)-2-(trifluoromethyl)pyrimidin-4-yl)piperidin-4-yl)butanamido)methanesulfonic acid] |
| < 0.1 | 0.1 to 0.999 | N#Cc1ccc(CCNC(=O)[C@@H]2CCCN2c2cc(-c3ccc(CO)s3)nc(C(F)(F)F)n2)cc1 [Compound 183, (S)-N-(4-cyanophenethyl)-1-(6-(5-(hydroxymethyl)thiophen-2-yl)-2-(trifluoromethyl)pyrimidin-4-yl)pyrrolidine-2-carboxamide] |
| < 0.1 | 0.1 to 0.999 | N#Cc1ccc(CCNC(=O)[C@@H]2CCCN2c2cc(-c3ccc(CCC(=O)O)cc3)nc(C(F)(F)F)n2)cc1 [Compound 188, (S)-3-(4-(6-(2-((4-cyanophenethyl)carbamoyl)pyrrolidin-1-yl)-2-(trifluoromethyl)pyrimidin-4-yl)phenyl)propanoic acid] |
| < 0.1 | 0.1 to 0.999 | N#Cc1ccc(CCNC(=O)[C@@H]2CCCN2c2cc(-c3ccc(CNC(=O)NCCS(=O)(=O)O)cc3)nc(C(F)(F)F)n2)cc1 [Compound 191, (S)-2-(3-(4-(6-(2-((4-cyanophenethyl)carbamoyl)pyrrolidin-1-yl)-2-(trifluoromethyl)pyrimidin-4-yl)benzyl)ureido)ethanesulfonic acid] |
| < 0.1 | < 0.1 | N#Cc1ccc(CCNC(=O)[C@@H]2CCCN2c2cc(-c3ccc(CCC(=O)O)cc3)cc(C(F)(F)F)n2)cc1 [Compound 205, (S)-3-(4-(2-(2-((4-cyanophenethyl)carbamoyl)pyrrolidin-1-yl)-6-(trifluoromethyl)pyridin-4-yl)phenyl)propanoic acid] |
| 1 to 30 | 1 to 30 | O=C(O)CCNC(=O)NCCC1CCN(c2cc(N3CCC[C@H]3C(=O)NCCc3ccc(-c4ccccn4)cc3)nc(C(F)(F)F)n2)CC1 [Compound 378, (S)-3-(3-(2-(1-(6-(2-((4-(pyridin-2-yl)phenethyl)carbamoyl)pyrrolidin-1-yl)-2-(trifluoromethyl)pyrimidin-4-yl)piperidin-4-yl)ethyl)ureido)propanoic acid] |
| 0.1 to 0.999 | 0.1 to 0.999 | N#Cc1ccc(CCNC(=O)[C@@H]2CC(F)(F)CN2c2cc(N3CCC(CCNC(=O)NCCS(=O)(=O)O)CC3)nc(C(F)(F)F)n2)cc1 [Compound 216, (S)-2-(3-(2-(1-(6-(2-((4-cyanophenethyl)carbamoyl)-4,4-difluoropyrrolidin-1-yl)-2-(trifluoromethyl)pyrimidin-4-yl)piperidin-4-yl)ethyl)ureido)ethanesulfonic acid] |
| < 0.1 | 0.1 to 0.999 | N#Cc1ccc(CCNC(=O)[C@@H]2CCCN2c2cc(-c3csc(CO)c3)nc(C(F)(F)F)n2)cc1 [Compound 182, (S)—N-(4-cyanophenethyl)-1-(6-(5-(hydroxymethyl)thiophen-3-yl)-2-(trifluoromethyl)pyrimidin-4-yl)pyrrolidine-2-carboxamide] |
